{
  "source": "patent US20080234273A1",
  "about": "“Heteroaryl Benzamide Derivatives for Use as Glk Activators in the Treatment of Diabetes” (priority 2005, published 2008)",
  "target": "T1, recombinant human pancreatic GLK (Homo sapiens, UniProt P35557)",
  "T1 sequence (P35557 1-465)": "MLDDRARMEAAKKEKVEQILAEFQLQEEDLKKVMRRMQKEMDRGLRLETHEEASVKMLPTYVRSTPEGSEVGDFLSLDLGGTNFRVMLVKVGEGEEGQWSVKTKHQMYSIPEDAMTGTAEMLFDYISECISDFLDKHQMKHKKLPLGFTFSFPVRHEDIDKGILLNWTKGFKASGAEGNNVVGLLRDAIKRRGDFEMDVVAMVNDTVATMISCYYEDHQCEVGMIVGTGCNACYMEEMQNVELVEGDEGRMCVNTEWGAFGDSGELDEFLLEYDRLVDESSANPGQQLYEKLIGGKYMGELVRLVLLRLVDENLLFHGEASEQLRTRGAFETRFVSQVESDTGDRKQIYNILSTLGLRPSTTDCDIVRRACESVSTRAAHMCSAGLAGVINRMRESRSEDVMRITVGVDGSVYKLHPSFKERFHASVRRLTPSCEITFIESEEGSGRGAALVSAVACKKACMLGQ",
  "test": "biochemical",
  "data": [
    {"smiles": "C[C@@H](COC(F)F)Oc1cc(Oc2ccc(C(=O)N3CCC3)cc2Cl)cc(C(=O)Nc2ccn(C)n2)c1", "note": "[Example 1, 3-{[4-(Azetidin-1-ylcarbonyl)-2-chlorophenyl]oxy}-5-({(1S)-2-[(difluoromethyl)oxy]-1-methylethyvl}oxy)-N-(1-methyl-1H-pyrazol-3-yl)benzamide]", "values": [
      {"measurement": "EC50", "result": 0.04, "unit": "µM"}
    ]}
  ]
}
